Assay results reported in ChEMBL document CHEMBL4507290 (2021).

What was measured:
[1] = biological target: Tyrosine-protein kinase TXK (Homo sapiens) (UniProt P42681); conditions: Compound concentration 1000.0 nM
[2] = biological target: Non-receptor tyrosine-protein kinase TYK2 (Homo sapiens) (UniProt P29597); conditions: Compound concentration 1000.0 nM
[3] = biological target: Mitogen-activated protein kinase kinase kinase 1 (Homo sapiens) (UniProt Q13233); conditions: Compound concentration 1000.0 nM
[4] = biological target: Tyrosine-protein kinase JAK1 (Homo sapiens) (UniProt P23458); conditions: Compound concentration 1000.0 nM
[5] = test system: Mast/stem cell growth factor receptor Kit (Homo sapiens), P10721 [V559D]; conditions: Compound concentration 1000.0 nM
Rattus norvegicus = species on record: Rattus norvegicus; conditions: Compound concentration 10.0 uM
[6] = biological target: G protein-coupled receptor kinase 4 (Homo sapiens) (UniProt P32298); conditions: Compound concentration 1000.0 nM
[7] = biological target: Cyclin-dependent kinase 7 (Homo sapiens) (UniProt P50613); conditions: Compound concentration 1000.0 nM
[8] = biological target: Serine/threonine-protein kinase RIO3 (Homo sapiens) (UniProt O14730); conditions: Compound concentration 1000.0 nM
Sequence of Serine/threonine-protein kinase RIO3 (Homo sapiens) (O14730 whole entry): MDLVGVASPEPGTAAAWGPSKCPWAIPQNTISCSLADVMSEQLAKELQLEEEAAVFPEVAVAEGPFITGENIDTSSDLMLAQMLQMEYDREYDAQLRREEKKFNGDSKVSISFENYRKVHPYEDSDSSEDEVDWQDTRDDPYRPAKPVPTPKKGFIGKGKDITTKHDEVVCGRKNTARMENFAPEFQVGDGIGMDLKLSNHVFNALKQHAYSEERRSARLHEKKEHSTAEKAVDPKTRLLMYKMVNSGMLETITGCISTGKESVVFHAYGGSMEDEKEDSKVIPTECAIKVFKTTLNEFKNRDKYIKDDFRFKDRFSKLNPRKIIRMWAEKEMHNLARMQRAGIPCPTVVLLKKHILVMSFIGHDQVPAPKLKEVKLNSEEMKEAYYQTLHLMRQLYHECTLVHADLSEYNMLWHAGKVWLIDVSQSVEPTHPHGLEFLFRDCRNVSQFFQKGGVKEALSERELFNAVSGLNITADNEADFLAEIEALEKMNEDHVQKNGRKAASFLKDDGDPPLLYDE

[9] = biological target: Receptor-type tyrosine-protein kinase FLT3 (Homo sapiens) (UniProt P36888); conditions: Compound concentration 1000.0 nM
[10] = biological target: Bone morphogenetic protein receptor type-1A (Homo sapiens) (UniProt P36894); conditions: Compound concentration 1000.0 nM
Sequence of Bone morphogenetic protein receptor type-1A (Homo sapiens) (P36894 whole entry): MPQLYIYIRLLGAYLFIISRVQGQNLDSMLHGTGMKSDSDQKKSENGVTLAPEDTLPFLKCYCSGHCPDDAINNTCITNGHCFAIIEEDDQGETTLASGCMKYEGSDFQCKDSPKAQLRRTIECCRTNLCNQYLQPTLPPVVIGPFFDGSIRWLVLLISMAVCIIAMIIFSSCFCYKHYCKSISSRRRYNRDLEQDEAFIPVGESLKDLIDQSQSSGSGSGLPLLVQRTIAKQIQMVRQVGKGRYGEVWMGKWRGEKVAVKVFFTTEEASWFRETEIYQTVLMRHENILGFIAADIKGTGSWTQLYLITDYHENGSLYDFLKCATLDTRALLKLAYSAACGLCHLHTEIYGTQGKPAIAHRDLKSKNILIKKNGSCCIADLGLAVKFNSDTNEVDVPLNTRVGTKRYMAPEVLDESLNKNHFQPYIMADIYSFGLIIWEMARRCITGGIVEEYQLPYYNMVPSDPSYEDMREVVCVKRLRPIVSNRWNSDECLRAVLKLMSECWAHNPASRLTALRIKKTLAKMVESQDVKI

[11] = biological target: Mitogen-activated protein kinase kinase kinase 9 (Homo sapiens) (UniProt P80192); conditions: Compound concentration 1000.0 nM
[12] = biological target: Mitogen-activated protein kinase 14 (Homo sapiens) (UniProt Q16539); conditions: Compound concentration 1000.0 nM
[13] = biological target: Mitogen-activated protein kinase 7 (Homo sapiens) (UniProt Q13164); conditions: Compound concentration 1000.0 nM
[14] = biological target: Serine/threonine-protein kinase D1 (Homo sapiens) (UniProt Q15139); conditions: Compound concentration 1000.0 nM
[15] = biological target: Dual specificity mitogen-activated protein kinase kinase 4 (Homo sapiens) (UniProt P45985); conditions: Compound concentration 1000.0 nM
[16] = biological target: Protein-tyrosine kinase 2-beta (Homo sapiens) (UniProt Q14289); conditions: Compound concentration 1000.0 nM
[17] = biological target: Myosin light chain kinase family member 4 (Homo sapiens) (UniProt Q86YV6); conditions: Compound concentration 1000.0 nM
[18] = biological target: Cyclin-dependent kinase-like 2 (Homo sapiens) (UniProt Q92772); conditions: Compound concentration 1000.0 nM
Sequence of Cyclin-dependent kinase-like 2 (Homo sapiens) (Q92772 whole entry): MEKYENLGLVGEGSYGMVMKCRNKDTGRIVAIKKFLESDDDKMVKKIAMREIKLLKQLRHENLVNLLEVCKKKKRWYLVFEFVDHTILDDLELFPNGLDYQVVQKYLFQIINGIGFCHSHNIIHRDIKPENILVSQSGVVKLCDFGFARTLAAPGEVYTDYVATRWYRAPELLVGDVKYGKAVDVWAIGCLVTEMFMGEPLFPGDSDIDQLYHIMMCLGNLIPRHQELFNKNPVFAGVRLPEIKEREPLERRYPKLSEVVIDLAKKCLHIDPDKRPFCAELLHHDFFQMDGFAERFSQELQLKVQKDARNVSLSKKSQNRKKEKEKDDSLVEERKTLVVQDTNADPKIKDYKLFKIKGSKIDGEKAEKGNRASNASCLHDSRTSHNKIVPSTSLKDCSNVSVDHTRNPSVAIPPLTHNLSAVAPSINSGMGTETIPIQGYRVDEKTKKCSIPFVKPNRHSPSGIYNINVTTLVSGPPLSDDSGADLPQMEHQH

[19] = biological target: MAP/microtubule affinity-regulating kinase 4 (Homo sapiens) (UniProt Q96L34); conditions: Compound concentration 1000.0 nM
[20] = biological target: Serine/threonine-protein kinase STK11 (Homo sapiens) (UniProt Q15831); conditions: Compound concentration 1000.0 nM
[21] = biological target: Platelet-derived growth factor receptor alpha (Homo sapiens) (UniProt P16234); conditions: Compound concentration 1000.0 nM
[22] = test system: Leucine-rich repeat serine/threonine-protein kinase 2 (Homo sapiens), Q5S007 [G2019S]; conditions: Compound concentration 1000.0 nM
[23] = biological target: Ephrin type-A receptor 3 (Homo sapiens) (UniProt P29320); conditions: Compound concentration 1000.0 nM
[24] = biological target: 5'-AMP-activated protein kinase catalytic subunit alpha-2 (Homo sapiens) (UniProt P54646); conditions: Compound concentration 1000.0 nM
Sequence of 5'-AMP-activated protein kinase catalytic subunit alpha-2 (Homo sapiens) (P54646 whole entry, looked up): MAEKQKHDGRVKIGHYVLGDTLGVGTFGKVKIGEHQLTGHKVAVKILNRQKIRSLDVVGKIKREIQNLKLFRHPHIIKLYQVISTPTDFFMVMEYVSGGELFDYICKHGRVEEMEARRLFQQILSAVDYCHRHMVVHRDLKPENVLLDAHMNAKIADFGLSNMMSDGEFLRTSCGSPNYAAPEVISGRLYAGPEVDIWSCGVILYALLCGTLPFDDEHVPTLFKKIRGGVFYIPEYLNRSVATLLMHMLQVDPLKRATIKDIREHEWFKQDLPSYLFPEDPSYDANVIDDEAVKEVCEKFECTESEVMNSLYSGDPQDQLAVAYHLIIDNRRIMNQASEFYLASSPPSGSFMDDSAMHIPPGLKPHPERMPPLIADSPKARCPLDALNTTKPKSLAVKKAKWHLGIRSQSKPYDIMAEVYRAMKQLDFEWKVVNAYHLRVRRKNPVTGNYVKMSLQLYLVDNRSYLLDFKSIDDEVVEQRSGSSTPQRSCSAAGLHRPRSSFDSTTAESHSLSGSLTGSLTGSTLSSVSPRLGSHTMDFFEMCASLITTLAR

[25] = biological target: Ephrin type-B receptor 4 (Homo sapiens) (UniProt P54760); conditions: Compound concentration 1000.0 nM
[26] = test system: ALK tyrosine kinase receptor (Homo sapiens), Q9UM73 [C1156Y]; conditions: Compound concentration 1000.0 nM
Sequence of ALK tyrosine kinase receptor (Homo sapiens), Q9UM73 [C1156Y] (Q9UM73 whole entry C1156Y, looked up): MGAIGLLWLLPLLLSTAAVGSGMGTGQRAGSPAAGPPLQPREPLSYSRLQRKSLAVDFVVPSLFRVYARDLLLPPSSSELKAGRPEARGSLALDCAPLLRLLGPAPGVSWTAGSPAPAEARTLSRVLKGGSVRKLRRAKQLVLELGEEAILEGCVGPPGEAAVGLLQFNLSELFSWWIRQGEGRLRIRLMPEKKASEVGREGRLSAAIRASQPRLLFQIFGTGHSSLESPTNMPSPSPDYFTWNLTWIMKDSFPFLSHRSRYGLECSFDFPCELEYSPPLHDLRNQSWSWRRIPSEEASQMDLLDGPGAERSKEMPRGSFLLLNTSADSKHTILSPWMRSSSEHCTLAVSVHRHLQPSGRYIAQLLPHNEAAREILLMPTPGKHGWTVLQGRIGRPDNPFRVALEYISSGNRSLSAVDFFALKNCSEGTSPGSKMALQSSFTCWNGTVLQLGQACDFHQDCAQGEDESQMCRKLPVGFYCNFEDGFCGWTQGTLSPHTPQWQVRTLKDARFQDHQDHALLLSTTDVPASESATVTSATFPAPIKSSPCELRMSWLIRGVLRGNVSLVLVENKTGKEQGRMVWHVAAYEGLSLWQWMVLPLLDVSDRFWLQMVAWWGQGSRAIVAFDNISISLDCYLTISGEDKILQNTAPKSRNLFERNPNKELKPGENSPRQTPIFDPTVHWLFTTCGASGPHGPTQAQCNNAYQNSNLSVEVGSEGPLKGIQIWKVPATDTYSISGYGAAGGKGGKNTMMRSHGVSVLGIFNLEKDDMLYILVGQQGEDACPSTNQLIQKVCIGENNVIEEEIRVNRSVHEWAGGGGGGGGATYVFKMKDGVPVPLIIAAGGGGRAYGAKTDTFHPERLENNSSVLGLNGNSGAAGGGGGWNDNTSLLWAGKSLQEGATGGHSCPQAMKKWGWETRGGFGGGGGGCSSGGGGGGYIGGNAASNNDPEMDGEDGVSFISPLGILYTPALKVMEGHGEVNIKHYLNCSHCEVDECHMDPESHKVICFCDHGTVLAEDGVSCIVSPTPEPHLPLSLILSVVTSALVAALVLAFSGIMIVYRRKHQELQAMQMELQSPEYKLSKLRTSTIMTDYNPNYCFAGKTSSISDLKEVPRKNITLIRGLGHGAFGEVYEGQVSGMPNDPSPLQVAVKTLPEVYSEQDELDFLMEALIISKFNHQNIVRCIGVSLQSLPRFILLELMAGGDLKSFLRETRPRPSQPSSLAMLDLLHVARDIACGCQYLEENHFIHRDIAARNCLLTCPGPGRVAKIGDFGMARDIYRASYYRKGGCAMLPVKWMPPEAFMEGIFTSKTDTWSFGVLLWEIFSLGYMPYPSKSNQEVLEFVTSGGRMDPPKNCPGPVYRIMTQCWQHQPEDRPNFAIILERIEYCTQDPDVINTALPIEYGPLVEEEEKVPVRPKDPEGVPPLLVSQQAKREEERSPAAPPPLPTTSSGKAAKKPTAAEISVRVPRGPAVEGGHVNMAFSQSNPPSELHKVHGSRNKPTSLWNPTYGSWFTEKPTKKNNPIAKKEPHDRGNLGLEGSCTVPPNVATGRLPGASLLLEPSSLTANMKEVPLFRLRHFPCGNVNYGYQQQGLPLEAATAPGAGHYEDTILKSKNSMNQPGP

[27] = biological target: Uncharacterized serine/threonine-protein kinase SBK3 (Homo sapiens) (UniProt P0C264); conditions: Compound concentration 1000.0 nM
Sequence of Uncharacterized serine/threonine-protein kinase SBK3 (Homo sapiens) (P0C264 whole entry): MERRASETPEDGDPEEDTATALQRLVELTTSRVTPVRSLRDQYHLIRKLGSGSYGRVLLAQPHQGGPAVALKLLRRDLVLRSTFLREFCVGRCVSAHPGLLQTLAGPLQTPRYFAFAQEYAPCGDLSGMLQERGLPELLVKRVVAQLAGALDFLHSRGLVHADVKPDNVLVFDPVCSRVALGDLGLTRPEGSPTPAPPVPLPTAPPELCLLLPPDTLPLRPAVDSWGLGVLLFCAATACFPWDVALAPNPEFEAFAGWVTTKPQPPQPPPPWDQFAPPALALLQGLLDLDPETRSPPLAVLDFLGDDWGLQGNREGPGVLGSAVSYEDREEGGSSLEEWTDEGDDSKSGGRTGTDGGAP

[28] = biological target: Membrane-associated tyrosine- and threonine-specific cdc2-inhibitory kinase (Homo sapiens) (UniProt Q99640); conditions: Compound concentration 1000.0 nM
[29] = biological target: Mitotic checkpoint serine/threonine-protein kinase BUB1 (Homo sapiens) (UniProt O43683); conditions: Compound concentration 1000.0 nM
[30] = biological target: MAP kinase-interacting serine/threonine-protein kinase 2 (Homo sapiens) (UniProt Q9HBH9); conditions: Compound concentration 1000.0 nM
[31] = biological target: Serine/threonine-protein kinase LATS1 (Homo sapiens) (UniProt O95835); conditions: Compound concentration 1000.0 nM
[32] = biological target: Mitogen-activated protein kinase kinase kinase 10 (Homo sapiens) (UniProt Q02779); conditions: Compound concentration 1000.0 nM
[33] = biological target: Cyclin-dependent kinase 4 (Homo sapiens) (UniProt P11802); conditions: Compound concentration 1000.0 nM
Sequence of Cyclin-dependent kinase 4 (Homo sapiens) (P11802 whole entry, canonical isoform): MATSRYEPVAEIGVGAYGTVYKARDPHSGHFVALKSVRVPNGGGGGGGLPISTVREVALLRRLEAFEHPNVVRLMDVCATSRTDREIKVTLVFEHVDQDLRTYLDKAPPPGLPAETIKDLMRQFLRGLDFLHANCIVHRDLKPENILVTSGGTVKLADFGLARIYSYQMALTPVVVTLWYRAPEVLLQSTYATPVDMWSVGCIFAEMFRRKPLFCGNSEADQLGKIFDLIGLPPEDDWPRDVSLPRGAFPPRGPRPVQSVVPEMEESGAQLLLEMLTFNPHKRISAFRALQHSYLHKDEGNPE

[34] = biological target: Casein kinase I isoform alpha-like (Homo sapiens) (UniProt Q8N752); conditions: Compound concentration 1000.0 nM
[35] = biological target: Ribosomal protein S6 kinase alpha-2 (Homo sapiens) (UniProt Q15349); conditions: Compound concentration 1000.0 nM
[36] = biological target: Serine/threonine-protein kinase RIO1 (Homo sapiens) (UniProt Q9BRS2); conditions: Compound concentration 1000.0 nM
[37] = test system: Phosphatidylinositol 4,5-bisphosphate 3-kinase catalytic subunit alpha isoform (Homo sapiens), P42336 [I800L]; conditions: Compound concentration 1000.0 nM
[38] = biological target: Serine/threonine-protein kinase 16 (Homo sapiens) (UniProt O75716); conditions: Compound concentration 1000.0 nM
[39] = biological target: Mitogen-activated protein kinase kinase kinase kinase 3 (Homo sapiens) (UniProt Q8IVH8); conditions: Compound concentration 1000.0 nM
[40] = biological target: Rhodopsin kinase GRK1 (Homo sapiens) (UniProt Q15835); conditions: Compound concentration 1000.0 nM
[41] = biological target: Tyrosine-protein kinase Lyn (Homo sapiens) (UniProt P07948); conditions: Compound concentration 1000.0 nM
[42] = biological target: Serine/threonine-protein kinase 35 (Homo sapiens) (UniProt Q8TDR2); conditions: Compound concentration 1000.0 nM
[43] = biological target: Dual serine/threonine and tyrosine protein kinase (Homo sapiens) (UniProt Q6XUX3); conditions: Compound concentration 1000.0 nM
[44] = biological target: TGF-beta receptor type-1 (Homo sapiens) (UniProt P36897); conditions: Compound concentration 1000.0 nM
Sequence of TGF-beta receptor type-1 (Homo sapiens) (P36897 whole entry): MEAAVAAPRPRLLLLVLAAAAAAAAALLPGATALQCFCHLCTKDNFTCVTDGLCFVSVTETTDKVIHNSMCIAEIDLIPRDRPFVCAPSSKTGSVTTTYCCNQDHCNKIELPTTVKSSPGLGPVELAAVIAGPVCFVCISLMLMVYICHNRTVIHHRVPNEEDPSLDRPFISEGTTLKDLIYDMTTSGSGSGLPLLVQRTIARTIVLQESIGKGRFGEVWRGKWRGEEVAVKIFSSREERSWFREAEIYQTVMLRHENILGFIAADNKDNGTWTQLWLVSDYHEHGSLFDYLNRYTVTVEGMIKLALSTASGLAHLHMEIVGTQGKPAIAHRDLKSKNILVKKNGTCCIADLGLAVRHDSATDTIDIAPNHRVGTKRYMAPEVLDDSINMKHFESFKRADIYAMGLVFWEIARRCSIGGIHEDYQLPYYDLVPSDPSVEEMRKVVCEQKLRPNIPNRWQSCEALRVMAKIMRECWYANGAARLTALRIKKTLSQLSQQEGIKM

CN([C@@H]1CCc2c(CC(=O)O)c3cc(S(C)(=O)=O)ccc3n2C1)S(=O)(=O)c1ccc(F)cc1 gave a residual activity [1] of 74%, a residual activity [2] of 100% and a residual activity [3] of 66%. It also gave a residual activity [4] of 100%, a residual activity [5] of 92% and an inhibition (Rattus norvegicus) of 41.4%. It also gave a residual activity [6] of 100%, a residual activity [7] of 87% and a residual activity [8] of 94%. The residual activity [9] was 100%, the residual activity [10] was 85% and the residual activity [11] was 91%. For the same compound, the residual activity [12] was 100%, the residual activity [13] was 96% and the residual activity [14] was 75%. The residual activity [15] was 75%, the residual activity [16] was 100% and the residual activity [17] was 100%. The residual activity [18] was 100%, the residual activity [19] was 100% and the residual activity [20] was 69%. It also gave a residual activity [21] of 100%, a residual activity [22] of 100% and a residual activity [23] of 97%. For the same compound, the residual activity [24] was 100%, the residual activity [25] was 95% and the residual activity [26] was 72%. The residual activity [27] was 49%, the residual activity [28] was 100% and the residual activity [29] was 86%. It also gave a residual activity [30] of 100%, a residual activity [31] of 61% and a residual activity [32] of 100%. The residual activity [33] was 93%, the residual activity [34] was 94% and the residual activity [35] was 99%. It also gave a residual activity [36] of 100%, a residual activity [37] of 72% and a residual activity [38] of 95%. It also gave a residual activity [39] of 100%, a residual activity [40] of 70% and a residual activity [41] of 100%. The residual activity [42] was 100%, the residual activity [43] was 77% and the residual activity [44] was 100%.
CN([C@@H]1CCc2c(CC(=O)O)c3ccccc3n2C1)S(=O)(=O)c1ccc(F)cc1 [MK-7246] showed a residual activity [1] of 93%, a residual activity [2] of 100% and a residual activity [3] of 62%. It also gave a residual activity [4] of 100%, a residual activity [5] of 100% and an inhibition (Rattus norvegicus) of 54%. The residual activity [6] was 100%, the residual activity [7] was 82% and the residual activity [8] was 100%. The residual activity [9] was 100%, the residual activity [10] was 100% and the residual activity [11] was 100%. The residual activity [12] was 100%, the residual activity [13] was 100% and the residual activity [14] was 100%. The residual activity [15] was 100%, the residual activity [16] was 100% and the residual activity [17] was 100%. It also gave a residual activity [18] of 100%, a residual activity [19] of 100% and a residual activity [20] of 56%. The residual activity [21] was 100%, the residual activity [22] was 100% and the residual activity [23] was 95%. It also gave a residual activity [24] of 100%, a residual activity [25] of 95% and a residual activity [26] of 98%. It also gave a residual activity [27] of 100%, a residual activity [28] of 100% and a residual activity [29] of 79%. It also gave a residual activity [30] of 100%, a residual activity [31] of 69% and a residual activity [32] of 100%. The residual activity [33] was 100%, the residual activity [34] was 100% and the residual activity [35] was 84%. For the same compound, the residual activity [36] was 100%, the residual activity [37] was 79% and the residual activity [38] was 99%. The residual activity [39] was 100%, the residual activity [40] was 88% and the residual activity [41] was 100%. It also gave a residual activity [42] of 100%, a residual activity [43] of 82% and a residual activity [44] of 100%.
